The values that follow are results of earlier work, collected in patent US10213411B2, “Use of prodrugs of fumarates in treating heart failure diseases” (priority 2015, dated 2019).

The structures appear in SMILES notation. Where a name gives a salt, the structure may show the parent alone.

For data set [1] the following is noted: healthy subjects, compared by MMF plasma levels.
Data set [2] deals with astrogliosis and microglial activations.
Data set [3] concerns central nervous system (CNS) inflammation. The settings on record: preclinical.
For data set [4] the test system is unchanged. The settings on record: preclinical. This is another data set of the same source.

With `COC(=O)/C=C/C(=O)OCCN1C(=O)CCC1=O` [ALKS 8700], in data set [1], the “dose comparable to 240 mg DMF (Tecfidera) by plasma levels of MMF” value is given as 420 mg.
As to `COC(=O)/C=C/C(=O)OC` [DMF, Dimethyl fumarate], in data set [2], the “astrogliosis and microglial activations associated with EAE” value was “inhibit astrogliosis and microglial activations”. Moreover, the “CNS inflammation in murine EAE” value in data set [3] is on record as “inhibit central nervous system (CNS) inflammation”. Moreover, the “CNS inflammation in rat EAE” value in data set [4] was “inhibit central nervous system (CNS) inflammation”.
